Series [1] can be described thus: Concentration-dependent uptake into empty vector-transfected HEK293 cells. Type of series: cell-based, human. The settings on record: human, empty vector (pcDNA5/FRT)-transfected HEK293 cells, pH 7.4; empty vector-transfected HEK cells; read-out: intrinsic clearance. The protocol: (§1) The transport experiments were performed using HEK293 cells that overexpress human OCT1*1 (wild-type), mutant human OCT1 D474N, variant human OCT1*2 (M420del) and OCT1*3 (R61C), wild-type human OCT2, and OCT3 after stable transfection. The wild-type cell lines of OCT1 and OCT2, as well as the variant cell lines OCT1*2 and *3, were generated using the Flp-In system (Thermo Fisher Scientific, Darmstadt, Germany) as described in previous publications. The cell line overexpressing OCT3 was a kind gift from Dr. Koepsell and Dr. Gorbulev (University of Würzburg, Germany). Cells transfected with the empty pcDNA5/FRT vector were used for the transport experiments as a control cell line. All cells were cultured approximately up to passage 30.
(§2) Forty-eight hours before the transport experiments, 600,000 cells were plated on 12-well plates pre-coated with poly-D-lysine and incubated at 37 °C with 5% CO2. The prepared 12-well plate with cells was positioned on a heating plate pre-warmed to 37 °C. After removing the medium, the cells were washed with 37 °C HBSS+ (10 mM HEPES in Hank’s balanced salt solution, pH 7.4). Then, one pre-defined concentration of a substrate was added to each well. The incubation period was stopped by adding 2 mL of 4 °C HBSS+ and removing the cells from the heating plate. The cells were washed twice with 4 °C HBSS+. For cell lysis, the cells were incubated for 15 min with 500 µL of 80% acetonitrile (LGC Standards, Wesel, Germany), which contained a respective internal standard (Table 1).
(§3) For time-dependent transport, the cells were incubated with 1 µM of the substance for 15 to 240 s to determine the linear uptake range ≥ 15 s. For concentration-dependent transport, the cells were incubated with defined substrate concentrations (0.1, 1, 10, 30, 100, 300, 600, 1000 µM) for the respective pre-defined incubation times. […]; 100 µM) and pre-defined incubation times. The uptake by a transporter was normalised to the uptake by empty vector-transfected cells. […] The results of transport experiments were normalized to the total protein concentration per well. Total protein quantification was performed using a bicinchoninic acid assay with bovine serum albumin as standard.
(§4) The ratios of cellular uptake were calculated by dividing the total uptake of transporter-overexpressing cells by the total uptake into empty vector transfected cells. The concentration-dependent cellular net uptake was used for analysis of transport kinetics by subtracting for each substrate concentration the uptake of empty vector-transfected cells from the uptake of transporter-overexpressing cells. The transport kinetic parameters Vmax and KM were determined with non-linear regression by using the Michaelis–Menten equation for net uptake data and by using the Michaelis–Menten equation extended with a linear term for total uptake data (GraphPad Prism 5.01, GraphPad software, LA Jolla, CA, USA). The intrinsic clearance Clint was expressed with the ratio of Vmax and KM.

For series [2], the system named is empty vector-transfected HEK cells. The series is described as above. Type of series: cell-based, human. Particulars: uptake into empty vector-transfected cells. The protocol: as §1, §2, §3, §4
The next series relates to OCT1. The settings on record: cited from earlier work.
For a further series, the target named is T1, OCT1 wild-type (Homo sapiens, UniProt O15245).
T1 construct: expressed in transfected cells
The experiment in a line: Inhibition of OCT1-mediated prostaglandin uptake by MPP+. The series is classed as cell-based. Particulars: 1 mM inhibitor, 100 µM prostaglandin. The procedure: as §2
Figure 8 Cellular uptake of prostaglandins by OCT1. Cellular uptake ratios were determined in HEK293 cells that were transfected stably with OCT1 or its variants that were incubated with 1 µM (light blue), 10 µM (medium blue), and 100 µM (dark blue) of prostaglandin E2 and F2α for 120 s. […] Statistical significance of the uptake ratio between OCT1 and its variants and between inhibited and not inhibited OCT1 was determined using an unpaired students t-test with * p < 0.05, ** p < 0.01, and *** p < 0.001.

The target in another series is T2, mutant human OCT1 D474N (Homo sapiens, UniProt O15245, D474N).
T2 construct: expressed in transfected cells
T2 sequence (O15245 1-554 D474N): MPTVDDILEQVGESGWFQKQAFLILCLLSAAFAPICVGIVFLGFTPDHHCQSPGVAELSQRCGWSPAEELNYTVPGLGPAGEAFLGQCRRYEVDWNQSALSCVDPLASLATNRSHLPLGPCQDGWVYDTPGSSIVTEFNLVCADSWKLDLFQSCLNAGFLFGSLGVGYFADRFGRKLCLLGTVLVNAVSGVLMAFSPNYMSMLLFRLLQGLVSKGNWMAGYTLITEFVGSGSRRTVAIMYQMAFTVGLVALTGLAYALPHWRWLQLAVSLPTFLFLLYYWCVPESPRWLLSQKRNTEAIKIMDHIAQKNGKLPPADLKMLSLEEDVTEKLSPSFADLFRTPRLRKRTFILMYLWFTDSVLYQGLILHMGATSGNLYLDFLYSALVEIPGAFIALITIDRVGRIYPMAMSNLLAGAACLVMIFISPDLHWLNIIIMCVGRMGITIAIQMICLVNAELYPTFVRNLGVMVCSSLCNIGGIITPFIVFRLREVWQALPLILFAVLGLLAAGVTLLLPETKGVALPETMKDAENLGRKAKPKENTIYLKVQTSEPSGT
The series can be described thus: Cellular uptake by HEK293 cells overexpressing variant OCT1 D474N. The series is classed as cell-based. The settings on record: 1, 10 and 100 µM, 120 s.

A further series deals with OCT1 (wild-type, OCT1*1) (Homo sapiens, UniProt O15245). The series can be described thus: Concentration-dependent uptake (transport kinetics) in HEK293 cells overexpressing OCT1 wild-type. The settings on record: human, HEK293 cells stably overexpressing human OCT1*1 (wild-type), pH 7.4, KM (±SEM), net uptake (OCT1 minus empty vector), HEK293, 0.1-1000 µM substrate, Michaelis–Menten.

The conditions of series [3]: no reference given; cited from earlier work.

Usually Km stands for the concentration of substrate that gives half-maximal velocity.

Entries after “also recorded” stand apart in the source; their conditions may differ.

In the case of `N[C@@H](Cc1ccc(O)c(O)c1)C(=O)O` [Levodopa, levodopa], the microsomal CLint in series [1] was 54.4 µL/min/mg. Moreover, in series [2], the Km is 380 µM and the Vmax is reported as 20,681 pmol/mg protein/min.
With `N=C(N)c1ccc(OCCCCCOc2ccc(C(=N)N)cc2)cc1` [Pentamidine, pentamidine], in the series on OCT1, the Km was 36.4 µM and the intrinsic clearance is recorded as 4.3 µL/mg protein/min.
`CCCCC[C@H](O)/C=C/[C@H]1[C@H](O)CC(=O)[C@@H]1C/C=C\CCCC(=O)O` [Prostaglandin E2, prostaglandin E2]: at OCT1 wild-type, the “uptake by OCT1 wild-type with the inhibitor MPP+” value is recorded as “statistically significantly reduced uptake”. For the same molecule, the “uptake of prostaglandins by OCT1 D474N in comparison to wild-type” value at mutant human OCT1 D474N is reported as “reduced to the level of the control cell line; also recorded: almost abolished”.
Regarding `CCCCC[C@H](O)/C=C/[C@@H]1[C@@H](C/C=C\CCCC(=O)O)[C@@H](O)C[C@H]1O` [Prostaglandin F2α, prostaglandin F2α], on OCT1 (wild-type, OCT1*1), the Km is 719 µM. Besides, on OCT1 wild-type, the “uptake by OCT1 wild-type with the inhibitor MPP+” value is “not statistically significant”. Besides, the “uptake of prostaglandins by OCT1 D474N in comparison to wild-type” value at mutant human OCT1 D474N is “reduced to the level of the control cell line”.
Take `COc1cc(Cc2cnc(N)nc2N)cc(OC)c1OC` [Trimethoprim, trimethoprim]: the “fraction eliminated via the kidneys” value in series [3] is “about 75%”.

Source of the values: PMC9687798, “Atypical Substrates of the Organic Cation Transporter 1” (Biomolecules, 2022).
